Results published in publication PMC7567792, “GPAHex-A synthetic biology platform for Type IV–V glycopeptide antibiotic production and discovery” (Nature Communications, 2020).
≈ marks a conversion by molar mass, not a printed value.

Assays:
S. venezuelae ATCC10712 = format: cell-based; settings: Bennett's media
Method: (§1) Antibiotic susceptibility was tested using standard procedures in Mueller-Hinton Broth for most strains. Enterococcus strains were grown in Brain Heart Infusion media (BHI; BD Biosciences). Streptomyces MICs were determined in Bennett’s media (10 g potato starch, 2 g casamino acids, 1.8 g yeast extract, 0.2 g KCl, 0.2 g MgSO4·7H2O, 0.24 g NaNO3, 4 mg FeSO4·7H2O, 1 L ddH2O, pH 6.8).

S. aureus ATCC29213 = format: cell-based; settings: Mueller-Hinton Broth
Method: as §1

[1] = test system: E. coli BW25113ΔbamBΔtolC; format: cell-based; settings: Mueller-Hinton Broth
Method: as §1

[2] = test system: E. faecium ATCC70022 (VREA); format: cell-based; settings: Brain Heart Infusion media
Method: as §1

E. faecium ATCC29212 = format: cell-based; settings: Brain Heart Infusion media
Method: as §1

B. subtilis 168 [3] = format: cell-based; settings: Mueller-Hinton Broth
Method: as §1

E. coli BW25113 = format: cell-based; settings: Mueller-Hinton Broth
Method: as §1

E. faecium ATCC19434 = format: cell-based; settings: Brain Heart Infusion media
Method: as §1

[4] = test system: E. faecium ATCC51299 (VREB); format: cell-based; settings: Brain Heart Infusion media
Method: as §1

hVISA MRSA Mu3 = format: cell-based, S. aureus; settings: Mueller-Hinton Broth
Method: as §1

MRSA USA300 = format: cell-based, S. aureus; settings: Mueller-Hinton Broth
Method: as §1

[5] = test system: Vancomycin intermediate MRSA Mu50; format: cell-based, S. aureus; settings: Mueller-Hinton Broth
Method: as §1

S. coelicolor M1154 = assay: MIC, antibiotic susceptibility testing; format: cell-based; settings: Bennett's media
Method: as §1

[6] = test system: S. coelicolor M1154/pAMX4/pGP6738; assay: MIC, antibiotic susceptibility testing; format: cell-based; settings: Bennett's media
Method: as §1

[7] = amide linkage changed to an ester; cited from earlier work
Description: Glycopeptide antibiotics (GPAs), such as vancomycin and teicoplanin (Fig. 1a), are microbial natural products (NPs) that are essential for the control of infections caused by Gram-positive pathogens. Vancomycin and teicoplanin inhibit bacterial cell wall biosynthesis by binding to the D-Alanine-D-Alanine terminating dipeptide of growing peptidoglycan and its extracellular precursors. Like all antibiotics, GPAs are vulnerable to resistance. Vancomycin resistance occurs through reprogramming of cell wall biosynthesis, mediated by a vanRSHAX resistance cassette that replaces the D-Ala-D-Ala te ...

Bacillus subtilis 168 = assay: Antibacterial activity assay (bioassay) of fermentation extracts; format: cell-based; settings: B. subtilis 168
Description: Supplementary Fig. 4. Bioassay of corbomycin heterologous expression extracts against B. subtilis 168. Crude extracts from S. coelicolor M1154/pGP1529 strain do […]
from S. coelicolor M1154/pAMX4/pGP1529. […]
parental strain S. sp. WAC01529 are likely the result of uncharacterized compounds produced by this strain, as equivalent amounts of purified corbomycin as are present […]
Source data are provided as a Source Data file.
(1 picture or pasted object on this page, not shown here)

B. subtilis 168 [8] = assay: Brightfield microscopy of cell morphology at sub-MIC; format: cell-based; settings: B. subtilis 168 grown with sub-MIC (0.6× MIC, 3.2 µg/mL GP6738) to mid-log phase
LytD = assay: Peptidoglycan autolysin digestion in vitro, LytD; format: biochemical, B. subtilis 168; settings: LytD 10 µg/mL, 1 mg/mL B. subtilis PG, 200 mM NaCl, 50 mM MES-NaOH pH 5.5, 30 min preincubation, OD600, 37 °C, triplicate
Method: (§2) The muramidase mutanolysin was purchased from Sigma. The glucosaminidase domain from LytD was cloned from B. subtilis 168 into pET28 between NcoI and XhoI restriction sites for introduction of C-term 6× His. Construct was expressed from E. coli BL21(DE3) pLysS by inoculating 1 L of LB media 1:50 from an overnight culture, then growing at 37 °C until OD600 reached 0.6, at which time the cells were induced with 1 mM IPTG and grown for 18 h at 16 °C. Native LytD-6× His was purified by Ni-NTA affinity chromatography and cation exchange chromatography. Protein purity was >95% as assessed by SDS-PAGE analysis.
(§3) B. subtilis peptidoglycan for binding and digestion assays was prepared by harvesting the cells (OD600 0.6–0.7), boiled in 4% SDS, and washed and sonicated to break up sacculi, followed by α-amylase and DNase treatment, and digested with pronase overnight. The peptidoglycan was boiled in 2% SDS again, washed, and teichoic acids were hydrolysed with 1 M HCl. The peptidoglycan was washed with water to pH 6.0 and lyophilized to use. Peptidoglycan was digested under optimized conditions with either mutanolysin (20 µg/mL, 1 mg/mL PG, 20 mM sodium acetate, pH 6.5) or LytD (10 µg/mL, 1 mg/mL PG, 200 mM NaCl, 50 mM MES-NaOH, pH 5.5). […] The plate was covered with a clear, breathable film to prevent evaporation, and OD600 was tracked on a Tecan sunrise microplate reader shaking at 37 °C.

[9] = test system: panel of indicator strains; assay: MIC determination against a panel of indicator strains, comparison of Type V GPAs; format: cell-based
Method: as §1

mutanolysin = assay: Peptidoglycan autolysin digestion in vitro, mutanolysin; format: biochemical; settings: mutanolysin 20 µg/mL, 1 mg/mL B. subtilis PG, 20 mM sodium acetate pH 6.5, 30 min preincubation, OD600, 37 °C, triplicate
Method: as §2, §3

[10] = Peptidoglycan binding assay; parameters: species or system B. subtilis; settings: 0.1 mg/mL GP6738 in water with 20% DMSO, PG 25:1 to 200:1 w/w, 1–2 h at 37 °C, unbound compound by HPLC
Method: To assess peptidoglycan binding, GP6738 was diluted to 0.1 mg/mL in water with 20% (v/v) DMSO to aid GP6738 solubility. For each 100 μL binding assay, B. subtilis peptidoglycan was added to 0 mg/mL, 2.5 mg/mL, 5 mg/mL, 10 mg/mL or 20 mg/mL for 0, 25:1, 50:1, 100:1 and 200:1 w/w ratios, respectively. Mixtures were incubated for 1–2 h at 37 °C, then centrifuged for 10 min to thoroughly pellet insoluble material, and the supernatant was removed for analysis. Samples were prepared for HPLC analysis by the addition of NH4OH to 0.01% (v/v), and 50 µL was injected on the HPLC. Analysis was performed using a Thermo Hypersil GOLD aQ C18 4.6 × 150 mm column and the following gradient at 0.8 mL/min, 40 °C: t = 0–2 min 0% solvent B, t = 10–13 min 65% solvent B, t = 14 min 0% solvent B (solvent A: 0.01% v/v NH4OH in water [pH 9.6] and solvent B: ACN).

B. subtilis 168 [11] = assay: Cell lysis assay / growth tracking (OD600); format: cell-based
Method: Early exponential phase B. subtilis 168 (OD600 ~0.25) grown in LB media was dispensed 100 µL per well into a round bottom 96 well plate. Antibiotics were supplemented to the appropriate concentration, and where appropriate lytic agents were added (50 µg/mL fosfomycin, 100 µg/mL ampicillin, 100 mM sodium azide). The plate was covered with a clear, breathable film and OD600 was monitored on a Tecan sunrise microplate reader at 37 °Cwith shaking.

Row | Compound | MIC (S. venezuelae ATCC10712) [µg/mL] | MIC (S. aureus ATCC29213) [µg/mL] | MIC [1] [µg/mL] | MIC [2] [µg/mL] | MIC (E. faecium ATCC29212) [µg/mL] | MIC (B. subtilis 168 [3]) [µg/mL] | MIC (E. coli BW25113) [µg/mL] | MIC (E. faecium ATCC19434) [µg/mL] | MIC [4] [µg/mL] | MIC (hVISA MRSA Mu3) [µg/mL] | MIC (MRSA USA300) [µg/mL] | MIC [5] [µg/mL] | MIC (S. coelicolor M1154) [µg/mL] | MIC [6] [µg/mL] | also measured
1 | Complestatin | 2 | 2 | 64 | 64 | 32 | 0.5 | > 256 | 64 | 32 | 0.5 | 2 | 0.5 | 4 |  | 
2 | CN[C@H](CC(C)C)C(=O)N[C@H]1C(=O)N[C@@H](CC(N)=O)C(=O)N[C@H]2C(=O)N[C@H]3C(=O)N[C@H](C(=O)N[C@H](C(=O)O)c4cc(O)cc(O)c4-c4cc3ccc4O)[C@H](O)c3ccc(c(Cl)c3)Oc3cc2cc(c3O[C@@H]2O[C@H](CO)[C@@H](O)[C@H](O)[C@H]2O[C@H]2C[C@](C)(N)[C@H](O)[C@H](C)O2)Oc2ccc(cc2Cl)[C@H]1O [Vancomycin] | 0.25 (≈ 0.173 µM) | 1 (≈ 0.69 µM) | 8 (≈ 5.52 µM) | > 256 | 2 (≈ 1.38 µM) | 0.25 (≈ 0.173 µM) | 256 (≈ 177 µM) | 2 (≈ 1.38 µM) | 32 (≈ 22.1 µM) | 2 (≈ 1.38 µM) | 1 (≈ 0.69 µM) | 8 (≈ 5.52 µM) | 256 (≈ 177 µM) | 256 (≈ 177 µM) | decrease of affinity of vancomycin on change of D-Ala-D-Ala to D-Ala-D-Lactate [7]: 1000 fold
3 | Corbomycin | 2 | 1 | 32 | 4 | 4 | 1 | > 256 | 4 | 4 | 1 | 1 | 1 | 4 | 4 | growth inhibition / zones of inhibition (Bacillus subtilis 168): do not give zones
4 | CC(C)C(NC(=O)C(NC(=O)C(N)c1cc(O)cc(O)c1)c1cc(O)cc(O)c1)C(=O)NC1Cc2c[nH]c3cc(ccc23)-c2cc3cc(c2O)Oc2ccc(cc2)CC(C(=O)NC(C(=O)O)c2cc(O)cc(O)c2)NC(=O)C(c2cc(O)cc(O)c2)NC(=O)C3NC(=O)C(c2cc(O)cc(O)c2)NC1=O (stereo not shown) [GP6738] | 16 (≈ 11.1 µM) | 4 (≈ 2.78 µM) | > 256 | 64 (≈ 44.5 µM) | 64 (≈ 44.5 µM) | 4 (≈ 2.78 µM) | > 256 | 64 (≈ 44.5 µM) | 64 (≈ 44.5 µM) | 4 (≈ 2.78 µM) | 4 (≈ 2.78 µM) | 2 to 4 | 16 (≈ 11.1 µM) | 16 (≈ 11.1 µM) | cell morphology (B. subtilis 168 [8]): characteristic elongated cell morphology of autolysin inhibition; block of peptidoglycan digestion by LytD (LytD): blocks cell wall digestion; fold higher MIC of GP6738 compared to corbomycin [9]: 2–16 fold; block of peptidoglycan digestion by mutanolysin (mutanolysin): blocks cell wall digestion; binding to peptidoglycan [10]: binding to peptidoglycan; bacteriostatic or bacteriolytic effect, growth tracking (B. subtilis 168 [11]; B. subtilis 168, 10-fold MIC, OD600, 37 °C, n = 3): bacteriostatic phenotype; block of cell lysis induced by lytic agents (B. subtilis 168 [11]; B. subtilis 168, 10× MIC, 50 µg/mL fosfomycin, 100 µg/mL ampicillin or 100 mM sodium azide, OD600, n = 3): able to block cell lysis
